Test results reported in the Kinase Knowledgebase extract (Sharma et al. 2016).

Target: EGFR (human) (UniProt P00533)
Sequence (P00533 whole entry, looked up): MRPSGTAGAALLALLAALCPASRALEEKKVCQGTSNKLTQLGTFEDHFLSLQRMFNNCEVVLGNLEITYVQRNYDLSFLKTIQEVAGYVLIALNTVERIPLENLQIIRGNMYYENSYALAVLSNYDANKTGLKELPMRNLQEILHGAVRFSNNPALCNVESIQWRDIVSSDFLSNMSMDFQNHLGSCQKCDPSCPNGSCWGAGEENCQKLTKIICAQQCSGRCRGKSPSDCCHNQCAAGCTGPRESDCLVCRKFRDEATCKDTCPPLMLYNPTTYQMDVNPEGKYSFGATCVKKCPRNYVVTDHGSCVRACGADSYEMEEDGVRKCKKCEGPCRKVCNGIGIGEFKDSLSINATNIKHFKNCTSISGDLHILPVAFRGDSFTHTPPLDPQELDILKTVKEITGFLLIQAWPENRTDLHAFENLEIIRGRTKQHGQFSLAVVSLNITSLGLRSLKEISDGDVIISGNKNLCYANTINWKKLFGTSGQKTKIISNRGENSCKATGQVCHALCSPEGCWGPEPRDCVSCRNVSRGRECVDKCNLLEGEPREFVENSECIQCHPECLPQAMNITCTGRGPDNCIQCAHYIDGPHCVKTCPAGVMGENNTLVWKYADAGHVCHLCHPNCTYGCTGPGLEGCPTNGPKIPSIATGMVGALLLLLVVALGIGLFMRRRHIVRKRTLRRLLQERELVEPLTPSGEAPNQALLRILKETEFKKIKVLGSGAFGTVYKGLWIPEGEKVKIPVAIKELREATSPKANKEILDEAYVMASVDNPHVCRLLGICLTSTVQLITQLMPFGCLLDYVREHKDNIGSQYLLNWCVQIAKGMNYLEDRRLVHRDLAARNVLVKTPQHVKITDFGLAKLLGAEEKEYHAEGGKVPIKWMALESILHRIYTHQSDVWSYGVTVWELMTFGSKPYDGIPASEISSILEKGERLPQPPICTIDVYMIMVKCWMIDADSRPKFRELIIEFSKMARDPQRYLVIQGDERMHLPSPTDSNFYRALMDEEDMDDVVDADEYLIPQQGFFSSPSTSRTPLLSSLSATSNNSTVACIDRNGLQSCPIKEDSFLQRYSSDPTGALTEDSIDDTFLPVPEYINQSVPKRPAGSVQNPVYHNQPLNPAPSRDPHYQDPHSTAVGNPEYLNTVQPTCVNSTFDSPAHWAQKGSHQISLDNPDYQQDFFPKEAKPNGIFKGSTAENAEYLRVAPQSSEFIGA

SMILES | IC50
CN(C)C1Cc2ccc(Nc3nccc(-c4sc(N)nc4-c4cccc(NC(=O)c5c(F)cccc5F)c4)n3)cc2C1 (configuration not stated) | < 100 nM
COCCOc1ccc(Nc2nccc(-c3sc(N)nc3-c3cccc(NC(=O)c4cccn4C)c3)n2)cc1F | < 100 nM
O=C1COc2cc(Nc3nccc(-c4scnc4-c4cccc(NC(=O)c5cc(F)ccc5F)c4)n3)ccc2N1 | < 100 nM
COc1ccc(Nc2nccc(-c3scnc3-c3cccc(NC(=O)Cc4cccs4)c3)n2)cc1OCCN(C)C | < 100 nM
CN(C)CCCNc1ccc(Nc2nccc(-c3sc(N)nc3-c3cccc(NC(=O)C4CCCCC4)c3)n2)cc1F | < 100 nM
CCc1nc(-c2cccc(NC(=O)c3c(F)cccc3F)c2)c(-c2ccnc(Nc3ccc(N4CCC(N5CCCCC5)CC4)c(F)c3)n2)s1 | < 100 nM
Nc1nc(-c2cccc(NC(=O)c3cc(F)ccc3F)c2)c(-c2ccnc(Nc3cccc(-c4cnco4)c3)n2)s1 | < 100 nM
COc1ccc(Nc2nccc(-c3sc(NC4CC4)nc3-c3cccc(NC(=O)c4c(F)cccc4F)c3)n2)cc1OCCN(C)C | < 100 nM
Cc1cc(Nc2nccc(-c3sc(N(C)C)nc3-c3cccc(NC(=O)c4c(F)cccc4F)c3)n2)ccc1CC1CCNCC1 | < 100 nM
COc1ccc(Nc2nccc(-c3sc(N)nc3-c3cccc(NC(=O)c4c(F)cccc4F)c3)n2)cc1N1CCNCC1 | < 100 nM
Nc1nc(-c2cccc(C(=O)Nc3c(F)cccc3F)c2)c(-c2ccnc(Nc3cccc(CN4CCCC4)c3)n2)s1 | < 100 nM
CS(=O)(=O)Cc1ccc(Nc2nccc(-c3sc(N)nc3-c3cccc(NC(=O)c4c(F)cccc4F)c3)n2)cc1 | < 100 nM
Cc1nc(-c2cccc(NC(=O)c3cccnc3F)c2)c(-c2ccnc(Nc3ccc4c(c3)CN(C)CC4)n2)s1 | < 100 nM
CN(C)CCOc1ccc(Nc2nccc(-c3sc(NCCCN4CCOCC4)nc3-c3cccc(NC(=O)c4c(F)cccc4F)c3)n2)cc1Cl | < 100 nM
CN(C)c1nc(-c2cccc(NC(=O)c3c(F)cccc3F)c2)c(-c2ccnc(Nc3ccc(OCCN4CCCC4)c(Cl)c3)n2)s1 | < 100 nM
Cc1nc(-c2cccc(NC(=O)c3cc(F)ccc3F)c2)c(-c2ccnc(Nc3ccc(OCCN(C)C)c(F)c3)n2)s1 | < 100 nM
Cc1nc(-c2cccc(NC(=O)c3cccc(C(F)(F)F)c3)c2)c(-c2ccnc(Nc3ccc4c(c3)CN(C)CC4)n2)s1 | < 100 nM
CN1CCc2ccc(Nc3nccc(-c4sc(NCCCN5CCOCC5)nc4-c4cccc(NC(=O)c5c(F)cccc5F)c4)n3)cc2C1 | < 100 nM
CN(C)CCCNc1ccc(Nc2nccc(-c3sc(N)nc3-c3cccc(NC(=O)c4cc(F)ccc4F)c3)n2)cc1F | < 100 nM
O=C(Nc1cccc(-c2nc(NCCCN3CCOCC3)sc2-c2ccnc(Nc3cccc(F)c3)n2)c1)c1c(F)cccc1F | < 100 nM
COCCNc1nc(-c2cccc(NC(=O)c3c(F)cccc3F)c2)c(-c2ccnc(Nc3ccc(OCCN4CCCC4)c(Cl)c3)n2)s1 | < 100 nM
CN1CCc2ccc(Nc3nccc(-c4sc(N)nc4-c4cccc(NC(=O)c5c(F)cccc5F)c4)n3)cc2C1 | < 100 nM
CN1CCc2ccc(Nc3nccc(-c4sc(CS(=O)(=O)C(C)(C)C)nc4-c4cccc(NC(=O)c5c(F)cccc5F)c4)n3)cc2C1 | < 100 nM
COc1cc(Nc2nccc(-c3sc(N)nc3-c3cccc(NC(=O)c4c(F)cccc4F)c3)n2)cc(OC)c1OC | < 100 nM
COc1cccc(C(=O)Nc2cccc(-c3nc(C)sc3-c3ccnc(Nc4ccc5c(c4)CN(C)CC5)n3)c2)c1 | < 100 nM
Cc1nc(-c2cccc(NC(=O)c3c(F)cccc3F)c2)c(-c2ccnc(Nc3cccc(OCCN(C)C)c3)n2)s1 | < 100 nM

SMILES | IC50
Nc1nc(-c2cccc(NC(=O)c3cc(F)ccc3F)c2)c(-c2ccnc(Nc3ccc4c(c3)CNCC4)n2)s1 | < 100 nM
CN(C)CCOc1ccc(Nc2nccc(-c3sc(N)nc3-c3cccc(OCc4ccccc4)c3)n2)cc1Cl | < 100 nM
O=C(Cc1cccs1)Nc1cccc(-c2ncsc2-c2ccnc(Nc3ccc4c(c3)NC(=O)CO4)n2)c1 | < 100 nM
CCc1nc(-c2cccc(NC(=O)c3c(F)cccc3F)c2)c(-c2ccnc(Nc3ccc(OCCN4CCCC4)c(F)c3)n2)s1 | < 100 nM
Cc1nc(-c2cccc(NC(=O)c3ccc(F)cc3)c2)c(-c2ccnc(Nc3ccc(OCCN(C)C)c(Cl)c3)n2)s1 | < 100 nM
CN(C)CCOc1cccc(Nc2nccc(-c3sc(NCCCN4CCOCC4)nc3-c3cccc(NC(=O)c4c(F)cccc4F)c3)n2)c1 | < 100 nM
COCCOc1ccc(Nc2nccc(-c3sc(N)nc3-c3cccc(NC(=O)c4c(F)cccc4F)c3)n2)cc1F | < 100 nM
O=C1COc2ccc(Nc3nccc(-c4scnc4-c4cccc(NC(=O)c5cc(F)ccc5F)c4)n3)cc2N1 | < 100 nM
CN(C)c1nc(-c2cccc(NC(=O)c3c(F)cccc3F)c2)c(-c2ccnc(Nc3ccc(OCCN4CCCC4)nc3)n2)s1 | < 100 nM
CCNc1nc(-c2cccc(NC(=O)C3CC3)c2)c(-c2ccnc(Nc3ccc(OCCN4CCCC4)c(Cl)c3)n2)s1 | < 100 nM
Cc1nc(-c2cccc(NC(=O)c3c(F)cccc3F)c2)c(-c2ccnc(Nc3cccc(CN4CCCC4)c3)n2)s1 | < 100 nM
CC(C)c1nc(-c2cccc(NC(=O)c3c(F)cccc3F)c2)c(-c2ccnc(Nc3ccc(OCCN4CCCC4)c(Cl)c3)n2)s1 | < 100 nM
CN(C)CCOc1ccc(Nc2nccc(-c3sc(NS(=O)(=O)CC(F)(F)F)nc3-c3cccc(NC(=O)c4c(F)cccc4F)c3)n2)cc1 | < 100 nM
Nc1nc(-c2cccc(OCc3ccccc3)c2)c(-c2ccnc(Nc3ccc4c(c3)CNCC4)n2)s1 | < 100 nM
Nc1nc(-c2cccc(OCc3ccccc3)c2)c(-c2ccnc(Nc3cccc(-c4cnco4)c3)n2)s1 | < 100 nM
O=C(Nc1cccc(-c2ncsc2-c2ccnc(Nc3ccc4c(c3)CNCC4)n2)c1)c1c(F)cccc1F | < 100 nM
O=C(Cc1cccs1)Nc1cccc(-c2ncsc2-c2ccnc(Nc3ccc4c(c3)OCC(=O)N4)n2)c1 | < 100 nM
O=C(Nc1cccc(-c2nc(N3CCCCC3)sc2-c2ccnc(Nc3cccc(CN4CCCC4)c3)n2)c1)c1c(F)cccc1F | < 100 nM
CCNc1nc(-c2cccc(NC(=O)c3c(F)cccc3F)c2)c(-c2ccnc(Nc3ccc(OCCN(C)C)c(Cl)c3)n2)s1 | < 100 nM
Cc1nc(-c2cccc(NC(=O)c3c(F)cccc3F)c2)c(-c2ccnc(Nc3cccc(F)c3)n2)s1 | < 100 nM
Nc1nc(-c2cccc(NC(=O)c3c(F)cccc3F)c2)c(-c2ccnc(Nc3ccc4c(c3)OCC(=O)N4)n2)s1 | < 100 nM
COc1ccc(Nc2nccc(-c3sc(N)nc3-c3cccc(NC(=O)c4c(F)cccc4F)c3)n2)cc1F | < 100 nM
CN(C)CCOc1cccc(Nc2nccc(-c3sc(N4CCCCC4)nc3-c3cccc(NC(=O)c4c(F)cccc4F)c3)n2)c1 | < 100 nM
CCN(CC)CCOc1cccc(Nc2nccc(-c3sc(N)nc3-c3cccc(NC(=O)c4c(F)cccc4F)c3)n2)c1 | < 100 nM
CN(C)CCOc1ccc(Nc2nccc(-c3sc(-c4ccc(O)cc4)nc3-c3cccc(NC(=O)c4cc(F)ccc4F)c3)n2)cc1Cl | < 100 nM
O=C(Nc1cccc(-c2nc(NCCCN3CCOCC3)sc2-c2ccnc(Nc3cccc(CN4CCCC4)c3)n2)c1)c1c(F)cccc1F | < 100 nM

SMILES | IC50
CN(C)C1Cc2ccc(Nc3nccc(-c4scnc4-c4cccc(NC(=O)Cc5cccs5)c4)n3)cc2C1 (configuration not stated) | < 100 nM
Cc1nc(-c2cccc(NC(=O)c3c(F)cccc3F)c2)c(-c2ccnc(Nc3ccc(OC4CCNCC4)c(F)c3)n2)s1 | < 100 nM
COCCNc1nc(-c2cccc(NC(=O)c3cc(F)ccc3F)c2)c(-c2ccnc(Nc3ccc(OC)c(F)c3)n2)s1 | < 100 nM
Cc1nc(-c2cccc(NC(=O)c3cc(F)ccc3F)c2)c(-c2ccnc(Nc3ccc(OCCN(C)C)c(Cl)c3)n2)o1 | < 100 nM
CNc1nc(-c2cccc(NC(=O)c3cc(F)ccc3F)c2)c(-c2ccnc(Nc3ccc(OC)c(F)c3)n2)s1 | < 100 nM
O=C(Nc1cccc(-c2nc(NCCN3CCOCC3)sc2-c2ccnc(Nc3ccc4c(c3)CNCC4)n2)c1)c1c(F)cccc1F | < 100 nM
CC(=O)Nc1nc(-c2cccc(NC(=O)c3c(F)cccc3F)c2)c(-c2ccnc(Nc3cccc(CN4CCCC4)c3)n2)s1 | < 100 nM
CN1CCc2ccc(Nc3nccc(-c4sc(C5CCNCC5)nc4-c4cccc(NC(=O)c5c(F)cccc5F)c4)n3)cc2C1 | < 100 nM
CN(C)CCOc1ccc(Nc2nccc(-c3sc(N(C)C)nc3-c3cccc(NC(=O)c4c(F)cccc4F)c3)n2)cc1 | < 100 nM
CN(C)c1nc(-c2cccc(NC(=O)c3c(F)cccc3F)c2)c(-c2ccnc(Nc3ccc(N4CCOCC4)c(Cl)c3)n2)s1 | < 100 nM
CN1CCC(c2nc(-c3cccc(NC(=O)c4c(F)cccc4F)c3)c(-c3ccnc(Nc4ccc5c(c4)CN(C)CC5)n3)s2)CC1 | < 100 nM
CN(C)CCOc1ccc(Nc2nccc(-c3sc(N4CCN(C)CC4)nc3-c3cccc(NC(=O)c4c(F)cccc4F)c3)n2)cc1Cl | < 100 nM
Cc1nc(-c2cccc(NC(=O)c3c(F)cccc3F)c2)c(-c2ccnc(Nc3ccc(OCCN4CCCC4)c(Cl)c3)n2)s1 | < 100 nM
Nc1nc(-c2cccc(NC(=O)C3CCCCC3)c2)c(-c2ccnc(Nc3cccc(-c4cnco4)c3)n2)s1 | < 100 nM
CN(C)CCOc1ccc(Nc2nccc(-c3sc(N)nc3-c3cccc(NC(=O)c4cc(F)ccc4F)c3)n2)cc1Cl | < 100 nM
CCc1nc(-c2cccc(NC(=O)c3c(F)cccc3F)c2)c(-c2ccnc(Nc3ccc(OCCN(C)C)c(Cl)c3)n2)s1 | < 100 nM
CN(C)CCOc1cccc(Nc2nccc(-c3scnc3-c3cccc(NC(=O)Cc4cccs4)c3)n2)c1 | < 100 nM
CN(C)CCOc1ccc(Nc2nccc(-c3sc(N)nc3-c3cccc(NC(=O)c4c(F)cccc4F)c3)n2)cc1Cl | < 100 nM
Nc1nc(-c2cccc(NC(=O)C3CCCCC3)c2)c(-c2ccnc(Nc3ccc4c(c3)CNCC4)n2)s1 | < 100 nM
CN1CCN(c2nc(-c3cccc(NC(=O)c4c(F)cccc4F)c3)c(-c3ccnc(Nc4cccc(CN5CCCC5)c4)n3)s2)CC1 | < 100 nM
COc1ccc(Nc2nccc(-c3sc(NCCN4CCOCC4)nc3-c3cccc(NC(=O)c4cc(F)ccc4F)c3)n2)cc1F | < 100 nM
Cc1nc(-c2cccc(NC(=O)c3c(F)cccc3F)c2)c(-c2ccnc(Nc3ccc(OC4CCN(C)CC4)c(F)c3)n2)s1 | < 100 nM
CN(C)CCOc1cccc(Nc2nccc(-c3sc(N)nc3-c3cccc(NC(=O)c4c(F)cccc4F)c3)n2)c1 | < 100 nM
NS(=O)(=O)CCc1cccc(Nc2nccc(-c3scnc3-c3cccc(NC(=O)c4cc(F)ccc4F)c3)n2)c1 | < 100 nM
CCc1nc(-c2cccc(NC(=O)c3c(F)cccc3F)c2)c(-c2ccnc(Nc3ccc(OCCN4CCCC4)c(Cl)c3)n2)s1 | < 100 nM
